Laboratory results taken from ChEMBL document CHEMBL5055666, “Tyrosine-Derived Novel Benzoxazine Active in a Rat Syngenic Mammary Tumor Model of Breast Cancer” (J Med Chem, 2021).

How the values were obtained:
MDA-MB-231 = assay: Antiproliferative activity against human MDA-MB-231 cells assessed as inhibition of cell growth incubated for 24 hrs by MTT assay; assay type: functional, cell-based; conditions: MDA-MB-231, 24 h
MCF7 = assay: Antiproliferative activity against human MCF7 cells assessed as inhibition of cell growth incubated for 24 hrs by MTT assay; assay type: functional, cell-based; conditions: MCF7, 24 h
Rattus norvegicus = assay: Toxicity in Sprague-Dawley rat inoculated with rat LA7 cells assessed as increase in uterine tissue at 10 mg/kg administered daily for 21 days; assay type: organism-based; conditions: in vivo, 504 h, time 21 day

Row | SMILES | IC50 (MDA-MB-231) | IC50 (MCF7) | Activity (Rattus norvegicus)
1 | COc1ccc(C[C@H]2COc3ccc(OC)cc3N2Cc2ccc(OCCN3CCCCC3)cc2)cc1 | 2.64 µM | 2.6 µM | –
2 | COc1ccc(C[C@H]2COc3ccccc3N2Cc2ccc(OCCN3CCOCC3)cc2)cc1 | 31.3 µM | 83.6 µM | –
3 | CC(C)N(CCOc1ccc(C[C@H]2COc3ccccc3N2Cc2ccccc2)cc1)C(C)C | > 50 µM | 40.4 µM | –
4 | CCN1c2ccccc2OC[C@@H]1Cc1ccc(O)cc1 | 43.6 µM | 30.4 µM | –
5 | COc1ccc(C[C@H]2COc3ccccc3N2Cc2ccccc2)cc1 | > 50 µM | > 50 µM | –
6 | COc1ccc(C[C@H]2CSc3ccccc3N2Cc2ccc(OCCN(C(C)C)C(C)C)cc2)cc1 | > 50 µM | > 50 µM | –
7 | CN(C)CCOc1ccc(C[C@H]2COc3ccccc3N2Cc2ccccc2)cc1 | > 50 µM | 20.5 µM | –
8 | COc1ccc(C[C@H]2CSc3ccccc3N2Cc2ccc(OCCN3CCCC3)cc2)cc1 | 10.9 µM | 30.8 µM | –
9 | COc1ccc(C[C@H]2COc3ccc(C(F)(F)F)cc3N2Cc2ccc(OCCN3CCCCC3)cc2)cc1 | 6.36 µM | 6.1 µM | –
10 | CC/C(=C(\c1ccccc1)c1ccc(OCCN(C)C)cc1)c1ccccc1 [TAMOXIFEN] | – | 5.4 µM | Toxic
11 | Oc1ccc(C[C@H]2COc3ccccc3N2Cc2ccc(O)cc2)cc1 | 40.2 µM | 24.4 µM | –
12 | COc1ccc(C[C@H]2COc3ccccc3N2C)cc1 | > 50 µM | > 50 µM | –
13 | COc1ccc(C[C@H]2COc3ccc(F)cc3N2Cc2ccc(OCCN3CCCCC3)cc2)cc1 | 2.92 µM | 3.61 µM | –
14 | COc1ccc(C[C@H]2COc3ccc(F)cc3N2Cc2ccc(OCCN3CCCC3)cc2)cc1 | 3.23 µM | 3.34 µM | –
15 | CCN(CC)CCOCCOc1ccc(CN2c3ccccc3OC[C@@H]2Cc2ccc(OC)cc2)cc1 | 45 µM | 39.1 µM | –
16 | COc1ccc(C[C@H]2COc3cc(F)c(F)cc3N2Cc2ccc(OCCN3CCCC3)cc2)cc1 | 3.22 µM | 3.35 µM | –
17 | CCN(CC)CCOc1ccc(CN2c3ccccc3OC[C@@H]2Cc2ccc(OC)cc2)cc1 | 0.97 µM | 6.95 µM | –
18 | COc1ccc(C[C@H]2COc3ccccc3N2Cc2ccc(OCCN3CCCCCC3)cc2)cc1 | 10.1 µM | 18.1 µM | –
19 | COc1ccc(C[C@H]2COc3ccccc3N2Cc2ccc(O)cc2)cc1 | 40.2 µM | 24.4 µM | –
20 | COc1ccc(C[C@H]2COc3ccccc3N2Cc2ccc(OS(=O)(=O)c3ccc(C)cc3)cc2)cc1 | > 50 µM | > 50 µM | –
21 | Oc1ccc(C[C@H]2COc3ccccc3N2)cc1 | 47.4 µM | > 50 µM | –
22 | c1ccc(CN2c3ccccc3OC[C@@H]2Cc2ccc(OCCN3CCCCC3)cc2)cc1 | > 50 µM | 22 µM | –
23 | Oc1ccc(C[C@H]2COc3ccccc3N2Cc2ccccc2)cc1 | 32.5 µM | 41.6 µM | –

Row | SMILES | IC50 (MDA-MB-231) | IC50 (MCF7) | Activity (Rattus norvegicus)
24 | COc1ccc(C[C@H]2COc3ccccc3N2C(=O)c2ccc(N)cc2)cc1 | > 50 µM | > 50 µM | –
25 | COc1ccc(C[C@H]2COc3ccccc3N2Cc2ccc(OCCOCCN3CCCC3)cc2)cc1 | > 50 µM | 21.3 µM | –
26 | COc1ccc(C[C@H]2COc3ccc(C(F)(F)F)cc3N2Cc2ccc(OCCN3CCCC3)cc2)cc1 | 6.89 µM | 6.86 µM | –
27 | COc1ccc(C[C@H]2COc3ccccc3N2Cc2ccc(OCCN(C)C)cc2)cc1 | 11.1 µM | 6.75 µM | –
28 | CC(=O)O[C@H]1C(=O)[C@@]2(C)[C@H]([C@H](OC(=O)c3ccccc3)[C@]3(O)C[C@H](OC(=O)[C@H](O)[C@@H](NC(=O)c4ccccc4)c4ccccc4)C(C)=C1C3(C)C)[C@]1(OC(C)=O)CO[C@@H]1C[C@@H]2O [PACLITAXEL] | 3.77 µM | – | –
29 | COc1ccc(C[C@H]2COc3ccccc3N2Cc2ccc(OCCN(C(C)C)C(C)C)cc2)cc1 | 0.83 µM | 77.6 µM | –
30 | COc1ccc(C[C@H]2COc3ccc(OC)cc3N2Cc2ccc(OCCN3CCCC3)cc2)cc1 | 3.59 µM | 3.34 µM | –
31 | CCN(CC)CCOc1ccc(CN2c3ccccc3SC[C@@H]2Cc2ccc(OC)cc2)cc1 | 26.7 µM | 31.7 µM | –
32 | c1ccc(CN2c3ccccc3OC[C@@H]2Cc2ccc(OCCN3CCCC3)cc2)cc1 | > 50 µM | 21.1 µM | –
33 | CN1c2ccccc2OC[C@@H]1Cc1ccc(OCCN2CCCCC2)cc1 | > 50 µM | > 50 µM | –
34 | COc1ccc(C[C@@H]2COc3ccccc3N2Cc2ccc(OCCN3CCCC3)cc2)cc1 | 6.52 µM | 7.03 µM | –
35 | COc1ccc(C[C@@H]2COc3ccccc3N2Cc2ccc(OCCN3CCCCC3)cc2)cc1 | 4.87 µM | 6.3 µM | –
36 | COc1ccc(C[C@H]2CSc3ccccc3N2Cc2ccc(OCCN3CCCCC3)cc2)cc1 | 12.2 µM | 17.4 µM | –
37 | CCN1c2ccccc2OC[C@@H]1Cc1ccc(OCCN2CCCC2)cc1 | > 50 µM | 45.8 µM | –
38 | COc1ccc(C[C@H]2COc3ccccc3N2)cc1 | 36.4 µM | > 50 µM | –
39 | COc1ccc(C[C@H]2COc3ccccc3N2Cc2ccc(OCCO)cc2)cc1 | > 50 µM | 43.7 µM | –
40 | COc1ccc(C[C@H]2COc3ccccc3N2Cc2ccc(OCCOCCN3CCCCC3)cc2)cc1 | > 50 µM | 7.81 µM | –
41 | COc1ccc(C[C@H]2COc3cc(F)c(F)cc3N2Cc2ccc(OCCN3CCCCC3)cc2)cc1 | 4.86 µM | 5.05 µM | –
42 | COc1ccc(C[C@H]2COc3ccccc3N2Cc2ccc(OCCOCCN(C(C)C)C(C)C)cc2)cc1 | > 50 µM | 5.5 µM | –
43 | COc1ccc(C[C@H]2CSc3ccccc3N2Cc2ccc(OCCN(C)C)cc2)cc1 | 25.5 µM | 28.8 µM | –
44 | CN(C)CCOc1ccc(C[C@H]2COc3ccccc3N2C)cc1 | > 50 µM | > 50 µM | –
45 | COc1ccc(C[C@H]2COc3ccccc3N2Cc2ccc(OCCN3CCCCC3)cc2)cc1 | 11 µM | 0.68 µM | –
46 | CN1c2ccccc2OC[C@@H]1Cc1ccc(OCCN2CCCC2)cc1 | > 50 µM | > 50 µM | –
